Laboratory results from PubChem BioAssay (NCI).
Several values for one entry are separate records, joined by “and”; a condition that tells them apart may be missing. Identical values can stand only once.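 In this assay, cells in 96-well plates receive the compound at five concentrations for 48 hours. Endpoints are linearly interpolated between the surrounding concentrations. The concentration for 50% growth inhibition is given as GI50. TGI: total growth inhibition.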

Tests used:
Test in all cases: DTP human tumour cell line panel, 48 h
[1] = system: NCI-H460 lung
[2] = system: HT29 colon
[3] = system: TK-10 renal
[4] = system: DU-145 prostate
[5] = system: OVCAR-5 ovarian
[6] = system: SF-268 CNS
[7] = system: LOX IMVI melanoma
[8] = system: MDA-MB-435
[9] = system: RXF 393 renal
[10] = system: NCI-H226 lung

SMILES: CC/C=C\C/C=C\C[C@H](O)C/C=C1/C(=O)C=C[C@@H]1C/C=C\CCCC(=O)O
- GI50 [1]: 3.84 µM
- TGI [1]: > 100 µM
- GI50 [2]: 3.78 µM
- TGI [2]: 11.4 µM
- GI50 [3]: 8.06 µM
- TGI [3]: 21.1 µM
- GI50 [4]: 5.17 µM
- TGI [4]: 19 µM
- GI50 [5]: 7.22 µM
- TGI [5]: 30 µM
- GI50 [6]: 5.2 µM
- TGI [6]: 34 µM
- GI50 [7]: 1.74 µM
- TGI [7]: 3.74 µM
- GI50 [8]: 3.1 µM
- TGI [8]: 12 µM
- GI50 [9]: 2.94 µM
- TGI [9]: 8.71 µM
- GI50 [10]: 2.57 µM
- TGI [10]: 5.86 µM

SMILES: COc1ccc2c(c1)C(=O)c1c-2c(Nc2ccc(C(C)=O)cc2)nc2ccccc12
- GI50 [1]: 85.1 µM
- TGI [1]: > 100 µM
- GI50 [2]: 43.7 µM
- TGI [2]: > 100 µM
- GI50 [3]: 40.1 µM
- TGI [3]: > 100 µM
- GI50 [4]: 29 µM
- TGI [4]: > 100 µM
- GI50 [5]: 29.6 µM
- TGI [5]: > 100 µM
- GI50 [6]: 58.7 µM
- TGI [6]: > 100 µM
- GI50 [7]: 54.7 µM
- TGI [7]: > 100 µM
- GI50 [8]: > 100 µM
- TGI [8]: > 100 µM
- GI50 [9]: 2.54 µM
- TGI [9]: 9.2 µM
- GI50 [10]: 38.3 µM
- TGI [10]: > 100 µM

SMILES: COc1cc2nccc(Oc3ccc(NC(=O)C4(C(=O)Nc5ccc(F)cc5)CC4)cc3)c2cc1Oc1ccc(N)cn1
- GI50 [1]: 3.26 µM
- TGI [1]: 18.7 µM
- GI50 [2]: 1.92 µM
- TGI [2]: 7.6 µM
- GI50 [3]: 3.65 µM
- TGI [3]: > 100 µM
- GI50 [4]: 4.5 µM
- TGI [4]: > 100 µM
- GI50 [5]: 2.49 µM
- TGI [5]: 39 µM
- GI50 [6]: 3.11 µM
- TGI [6]: > 100 µM
- GI50 [7]: 1.75 µM
- TGI [7]: 3.49 µM
- GI50 [8]: 1.83 µM
- TGI [8]: 6.1 µM
- GI50 [9]: 1.72 µM
- TGI [9]: 4.72 µM
- GI50 [10]: 1.5 µM
- TGI [10]: 9.07 µM

SMILES: COc1ccc2c(c1)C(=O)C(=O)c1cc(O)c(OC)c(OC)c1-2
- GI50 [1]: 1.64 µM
- TGI [1]: 9.97 µM and 3.16 µM
- TGI [2]: 3.83 µM
- GI50 [3]: 1.69 µM
- TGI [3]: 1.77 µM and 3.05 µM
- GI50 [4]: 1.74 µM
- TGI [4]: 1.75 µM and 3.12 µM
- GI50 [5]: 1.65 µM
- TGI [5]: 2.42 µM and 3.13 µM
- GI50 [6]: 1.86 µM
- TGI [6]: 1.96 µM and 3.26 µM
- GI50 [7]: 1.48 µM
- TGI [7]: 1.83 µM and 3.16 µM
- GI50 [8]: 0.291 µM
- TGI [8]: 0.272 µM and 0.807 µM
- GI50 [9]: 1.56 µM
- TGI [9]: 1.65 µM and 3.63 µM
- GI50 [10]: 1.95 µM
- TGI [10]: 14.3 µM and 3.9 µM

SMILES: O=C(CN1CCN(c2ccc(Cl)cc2)CC1)N1CCN(c2nnc(-c3ccc(Cl)cc3)c(-c3ccc(Cl)cc3)n2)CC1
- GI50 [1]: > 100 µM
- TGI [1]: > 100 µM
- GI50 [2]: 9.85 µM
- TGI [2]: > 100 µM
- GI50 [3]: 26.2 µM
- TGI [3]: > 100 µM
- GI50 [4]: 80 µM
- TGI [4]: > 100 µM
- GI50 [5]: > 100 µM
- TGI [5]: > 100 µM
- GI50 [6]: 34 µM
- TGI [6]: > 100 µM
- GI50 [7]: 14.5 µM
- TGI [7]: 76.4 µM
- GI50 [8]: 50.9 µM
- TGI [8]: > 100 µM
- GI50 [9]: 23.8 µM
- TGI [9]: 77.3 µM
- GI50 [10]: 45.7 µM
- TGI [10]: > 100 µM

SMILES: N#Cc1ccc(N2Cc3ccccc3OC3=C2C(=O)c2c(O)ccc(O)c2C3=O)cc1
- GI50 [1]: 0.897 µM
- TGI [1]: 4.23 µM
- GI50 [2]: 0.258 µM
- TGI [2]: 0.875 µM
- GI50 [3]: 0.118 µM
- TGI [3]: 0.265 µM
- GI50 [4]: 0.307 µM
- TGI [4]: 0.919 µM
- GI50 [5]: 0.437 µM
- TGI [5]: 1.58 µM
- GI50 [6]: 0.598 µM
- TGI [6]: 1.72 µM
- GI50 [7]: 0.166 µM
- TGI [7]: 0.44 µM
- GI50 [8]: 0.235 µM
- TGI [8]: 0.579 µM
- GI50 [9]: 0.157 µM
- TGI [9]: 0.313 µM
- GI50 [10]: 0.282 µM
- TGI [10]: 1.13 µM

SMILES: CN(N=O)C(=O)N[C@@H](C=O)[C@@H](O)[C@H](O)[C@H](O)CO
- GI50 [1]: > 750 µM
- TGI [1]: > 750 µM
- GI50 [2]: > 750 µM
- TGI [2]: > 750 µM
- TGI [3]: > 750 µM
- TGI [4]: > 750 µM
- GI50 [5]: > 750 µM
- TGI [5]: > 750 µM
- GI50 [6]: > 750 µM
- TGI [6]: > 750 µM
- GI50 [7]: 722 µM and > 750 µM
- TGI [7]: > 750 µM
- TGI [8]: > 750 µM
- GI50 [9]: > 750 µM
- TGI [9]: > 750 µM
- GI50 [10]: > 750 µM
- TGI [10]: > 750 µM

SMILES: O=C(Nc1ccc(Cl)cc1F)c1cc(I)ccc1O
- GI50 [1]: 1.5 µM
- TGI [1]: 14.2 µM
- GI50 [2]: 3.57 µM
- TGI [2]: > 100 µM
- GI50 [3]: 4.21 µM
- TGI [3]: 16.1 µM
- GI50 [4]: 3.1 µM
- TGI [4]: 47.9 µM
- GI50 [5]: 4.21 µM
- TGI [5]: > 100 µM
- GI50 [6]: 1.67 µM
- TGI [6]: 15.1 µM
- GI50 [7]: 1.42 µM
- TGI [7]: 6.79 µM
- GI50 [8]: 2.08 µM
- TGI [8]: 7.9 µM
- GI50 [9]: 1.57 µM
- TGI [9]: 5.2 µM
- GI50 [10]: 1.94 µM
- TGI [10]: 7.14 µM

SMILES: O=C(Nc1cccc(Oc2nnc(Cl)c3ccccc23)c1)Nc1ccc(Cl)c(C(F)(F)F)c1
- GI50 [1]: 0.898 µM
- TGI [1]: 3.44 µM
- GI50 [2]: 0.771 µM
- TGI [2]: 3.14 µM
- GI50 [3]: 2.32 µM
- TGI [3]: 6.55 µM
- GI50 [4]: 1.27 µM
- TGI [4]: 4.08 µM
- GI50 [5]: 1.24 µM
- TGI [5]: 4.26 µM
- GI50 [6]: 0.793 µM
- TGI [6]: 5.5 µM
- GI50 [7]: 0.68 µM
- TGI [7]: 2.82 µM
- GI50 [8]: 0.791 µM
- TGI [8]: 3.24 µM
- GI50 [9]: 1.17 µM
- TGI [9]: 3.87 µM
- GI50 [10]: 2.14 µM
- TGI [10]: 7.2 µM

SMILES: CN1CCN(c2ccc3nc(-c4c(N)c5c(F)cccc5[nH]c4=O)[nH]c3c2)CC1
- GI50 [1]: 0.369 µM and 0.344 µM and 0.454 µM
- TGI [1]: 1.72 µM and 1.79 µM and 2.2 µM
- GI50 [2]: 0.909 µM and 0.663 µM and 1.43 µM
- TGI [2]: 2.89 µM and > 5.42 µM and 11.2 µM
- GI50 [3]: 1.14 µM and 1.01 µM and 3.56 µM
- TGI [3]: 4.95 µM and > 4.67 µM and 16.8 µM
- GI50 [4]: 0.991 µM and 0.547 µM and 1.06 µM
- TGI [4]: 2.97 µM and > 6.53 µM and 9.59 µM
- GI50 [5]: 1.42 µM and 1.03 µM and 1.76 µM
- TGI [5]: 3.94 µM and > 6.96 µM and 6.94 µM
- GI50 [6]: 1.39 µM and 0.717 µM and 1.65 µM
- TGI [6]: 4.16 µM and > 2.83 µM and 10.1 µM
- GI50 [7]: 0.478 µM and 0.41 µM and 0.769 µM
- TGI [7]: 1.86 µM and 1.48 µM and 2.14 µM
- GI50 [8]: 0.974 µM and 0.535 µM and 1.08 µM
- TGI [8]: 2.34 µM and 1.85 µM and 2.61 µM
- GI50 [9]: 0.216 µM and 0.212 µM and 0.282 µM
- TGI [9]: 1.19 µM and 0.632 µM and 1.18 µM
- GI50 [10]: 0.525 µM and 0.476 µM and 0.537 µM
- TGI [10]: 8.36 µM and > 6.97 µM and 17.6 µM

SMILES: CC(C)(C#N)c1cc(F)cc(C(=O)Nc2cc(Nc3ncccc3-c3ncnc4nc[nH]c34)ccc2F)c1
- GI50 [1]: 2.51 µM
- TGI [1]: > 10 µM
- GI50 [2]: 0.151 µM
- TGI [2]: > 10 µM
- GI50 [3]: > 10 µM
- TGI [3]: > 10 µM
- GI50 [4]: 5.51 µM
- TGI [4]: > 10 µM
- GI50 [5]: 0.451 µM
- TGI [5]: > 10 µM
- GI50 [6]: 3.78 µM
- TGI [6]: > 10 µM
- GI50 [7]: 0.104 µM
- TGI [7]: 1.8 µM
- GI50 [8]: 0.307 µM
- TGI [8]: > 10 µM
- GI50 [9]: 2.22 µM
- TGI [9]: > 10 µM
- GI50 [10]: 0.804 µM
- TGI [10]: > 10 µM

SMILES: O=C(Nc1ccc(Oc2ccc3nc(NC(=O)c4ccccc4)[nH]c3c2)cc1)Nc1cc(C(F)(F)F)ccc1F
- GI50 [1]: 1.59 µM
- TGI [1]: > 22.4 µM
- GI50 [2]: 1.38 µM
- TGI [2]: > 25 µM
- GI50 [3]: 2.61 µM
- TGI [3]: 22 µM
- GI50 [4]: 1.32 µM
- TGI [4]: 16.6 µM
- GI50 [5]: 4.41 µM
- TGI [5]: > 25 µM
- GI50 [6]: 2.03 µM
- TGI [6]: 24.4 µM
- GI50 [7]: 0.97 µM
- TGI [7]: > 10.8 µM
- GI50 [8]: 0.709 µM
- TGI [8]: 2.94 µM
- GI50 [9]: 1.11 µM
- TGI [9]: 8.49 µM
- GI50 [10]: 0.603 µM
- TGI [10]: 3.97 µM
